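Step 1: Grow cells in 96-well plates. Step 2: Expose to compound for 48 hours at 5 concentrations. Step 3: Interpolate endpoints linearly; if unreached, use highest concentration. TGI marks complete inhibition of growth.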
Experiments:
Assay in all cases: inhibition of tumour cell growth, NCI panel, 48 h
[1] = tested on: SK-OV-3 ovarian
[2] = tested on: HOP-62 NSCLC
[3] = tested on: LOX IMVI melanoma
[4] = tested on: SW-620 colon
[5] = tested on: A549 NSCLC
[6] = tested on: COLO 205 colon
[7] = tested on: A498 renal
[8] = tested on: UACC-257 melanoma
[9] = tested on: K-562 leukemia
[10] = tested on: DLD-1 colon
[11] = tested on: HCT-116 colon
[12] = tested on: KM12 colon
[13] = tested on: SNB-19 CNS
[14] = tested on: HCT-15 colon
[15] = tested on: RXF-631 renal
[16] = tested on: SK-MEL-2 melanoma
[17] = tested on: DMS 114 small cell lung
[18] = tested on: MALME-3M melanoma
[19] = tested on: SR leukemia
[20] = tested on: NCI-H226 lung
[21] = tested on: M14 melanoma
[22] = tested on: HL-60(TB) leukemia
[23] = tested on: HOP-18 NSCLC
[24] = tested on: HT29 colon
[25] = tested on: IGROV1 ovarian
[26] = tested on: DMS 273 small cell lung
[27] = tested on: OVCAR-5 ovarian
[28] = tested on: KM20L2 colon
[29] = tested on: SK-MEL-28 melanoma
[30] = tested on: SNB-75 CNS
[31] = tested on: RPMI-8226 leukemia
[32] = tested on: NCI-H460 lung
[33] = tested on: SNB-78 CNS
[34] = tested on: OVCAR-4 ovarian
[35] = tested on: OVCAR-3 ovarian
[36] = tested on: MOLT-4 leukemia
[37] = tested on: U251 CNS
[38] = tested on: UO-31 renal
[39] = tested on: RXF 393 renal
[40] = tested on: NCI-H522 lung
[41] = tested on: TK-10 renal
[42] = tested on: 786-0 renal
[43] = tested on: EKVX NSCLC
[44] = tested on: CAKI-1 renal
[45] = tested on: HOP-92 NSCLC
[46] = tested on: OVCAR-8 ovarian
[47] = tested on: NCI-H23 lung
[48] = tested on: UACC-62 melanoma
[49] = tested on: ACHN renal
[50] = tested on: SN12C renal
[51] = tested on: SF-295 CNS
[52] = tested on: CCRF-CEM leukemia
[53] = tested on: HCC-2998 colon
[54] = tested on: SK-MEL-5 melanoma
[55] = tested on: LXFL 529 NSCLC
[56] = tested on: SF-268 CNS
[57] = tested on: SF-539 CNS
[58] = tested on: M19-MEL melanoma
[59] = tested on: XF 498 CNS

Measured: TGI

CC(N)Cc1ccc(F)cc1 (stereo not drawn)
not listed: [58] | [59]
> 100 µM: all other assays above

CCNC(=O)N(CC)CN(CC)C(=O)NCC
not listed: [19] | [23] | [25] | [26] | [32] | [34] | [37] | [39] | [41] | [42] | [45] | [47] | [54]
> 100 µM: all other assays above

From PubChem BioAssay (NCI)
